Data set [1] is described as follows: Aqueous kinetic solubility by laser nephelometry. The format is physicochemical. As to conditions: MilliQ water with 2.5% DMSO, range 250-12 µM, read-out: Sol (kinetic solubility). On the procedure: 2. Drug metabolism and pharmacokinetics
The aqueous solubility of test compounds was measured using laser nephelometry. Compounds were subject to serial dilution from 10 mM to 0.5 mM in DMSO. Aliquot were then mixed with MilliQ water to obtain an aqueous dilution plate with a final concentration range of 250 – 12 µM. The final DMSO concentration in these plates was 2.5%. Triplicate aliquots were transferred to a flat-bottomed polystyrene plate which was immediately read on a NEPHELOstar nephelometer (BMG Lab Technologies). The laser scatter caused by insoluble particulates (relative nephelometry units, RNU) was plotted against compound concentration using a segmental regression fit, with the point of inflection being quoted as the compound’s aqueous solubility (µM).
Solubility of compound 1 was measured by a different method. Here, compound 1 was dissolved in DMSO to give a 10 mM solution and solubility test samples prepared by adding a volume (5 µL) of this stock solution to phosphate buffered saline, pH 7.4 (195 µL, Sigma-Aldrich). This

The subject of another data set is T. vivax. Put plainly: Ex vivo drug sensitivity assay, T. vivax (STIB 719/ILRAD 560). Type of data set: cell-based. As to conditions: Trypanosoma vivax. As for the experimental part: Test compounds were resuspended to a final concentration of 10 mg/mL in DMSO. […]
1.3 Ex vivo drug sensitivity assays - Trypanosoma vivax
Since T. vivax cannot be cultured axenically, BSF trypanosomes were harvested from an infected mouse with high parasitemia via cardiac puncture and used directly in ex vivo assays. EC50 values were determined against T, vivax (STIB 719/ ILRAD 560) as previously described3, with minor modifications. Briefly, cell densities were determined using a Neubauer chamber and then diluted to a seeding density of 4 x 105 trypanosomes / mL. BSF trypanosomes were cultured in HMI-9 (IMDM) media containing 20% (v/v) bovine serum. Assay plates were incubated at 37 °C with 5 % CO2, for a total of 45 h prior to addition 10 µL of Resazurin (12.5 mg in 100 mL phosphate buffered saline, Aldrich) into each well, followed by a further 3 h incubation. Absorbance was read using a SpectraMax (Gemini XS) fluorescence reader at an excitation wavelength of 536 nm and an emission wavelength of 588 nm. EC50 values were determined using SOFTmax Pro 5.2 analysis […]
software. […]

Data set [2] can be described thus: Bovine liver microsome stability. Type of data set: in vitro ADME. To be noted: intrinsic clearance. On the procedure: 2.2 Microsomal stability studies […]
(b) Bovine liver microsome stability. Test compounds (0.5 µM) were incubated with 0.5 mg/mL bovine liver microsomes (Xenotech LLC TM) in 50 mM potassium phosphate buffer, pH7.4 and the reaction initiated upon addition of excess NADPH (8 mg/mL in 50 mM potassium phosphate buffer, pH7.4).
Aliquots (50 µL) of the incubation mixture were taken at time zero, 3, 6, 9, 15 and 30 min then mixed with acetonitrile (100 µL) to stop the reaction. An internal standard was added to all samples, prior to centrifugation (10 min, 1,665 g, RT) to sediment precipitated protein. Reaction plates were then sealed prior to UPLCMSMS analysis using a Quattro Premier XE (Waters corporation, USA).
XLfit (IDBS, UK) was used to calculate the exponential decay and consequently the rate constant (k) from the ratio of peak area of test compound to internal standard at each timepoint. The rate of intrinsic clearance (CLi) of each test compound was then calculated using the following […]
CLi(mL/min/g liver) = k x V x microsomal protein yield
Where V (mL/mg protein) is the incubation volume/ mg protein added and microsomal protein yield is taken as 52.5 mg protein/ g of liver. Verapamil (0.5 µM) was used as a positive control to confirm acceptable assay performance. […]

The test system of another data set is T. congolense. Put plainly: In vitro drug sensitivity assay, T. congolense (IL3000). The format is cell-based. To be noted: Trypanosoma congolense; IL3000 strain. As for the experimental part: 1.2 In vitro drug sensitivity assays - Trypanosoma congolense
EC50 values for test compounds against T. congolense (IL3000 strain) were conducted as previously described3 with minor modifications.4 Briefly, trypanosome cell densities were determined using a CASY cell counter (Schärfe) and diluted to a seeding density of 2 x 105 trypanosomes/mL. BSF trypanosomes were grown in HMI-9 (IMDM) media supplemented with 20% (v/v) bovine serum.1 Test compounds were resuspended to a final concentration of 10 mg/mL in DMSO. Assays plates were incubated at 34 °C with 5 % CO2, for a total of 69 h, prior to addition of 10 µL of Resazurin (12.5 mg in 100 mL phosphate buffered saline, Aldrich) into each well, followed by a further 3 h incubation. Absorbance was read using a SpectraMax (Gemini XS) fluorescence reader at an excitation wavelength of 536 nm and an emission wavelength of 588 nm. EC50 values were determined using SOFTmax Pro 5.2 analysis software. All experiments were conducted with technical duplicates, and at least three biological replicates. […]

A further data set has as its system L6 cells. Description: Cytotoxicity assay, rat skeletal myoblasts (L6). Type of data set: cell-based. As for the experimental part:
1.4 Cytotoxicity assays – Rat skeletal myoblasts (L6)
The cytotoxicity of test compounds was evaluated using a rat skeletal myoblast (L6) cell line, as previously described3, but with minor modifications. Cells were grown in RPMI media supplemented with 10% (v/v) fetal calf serum. L6 cells at a seeding density of 2 x 10^4 cells/mL were incubated in microtiter plates overnight at 37 °C and 5 % CO2 until adherent. The following day, test compounds were added to the plates (3-fold serial dilutions), prior to incubation for 69 h. Following incubation, 10 µL of Resazurin (12.5 mg in 100 mL phosphate buffered saline, Aldrich) was added to each well and the plates were incubated for a further 3 h. The plates were read using a SpectraMax (Gemini XS) fluorescence reader at an excitation wavelength of 536 nm and an emission wavelength of 588 nm. EC50 values were determined using SOFTmax Pro 5.2 analysis software. All experiments were conducted as technical replicates, with at least three biological replicates. […]

Each structure is given as a SMILES string. Where only a bound is given, the exact number is not on record here.

`CC(C)CS(=O)(=O)N[C@H]1CC[C@H](Nc2nc(N)c(C(=O)c3c(Cl)cc(CN(C)C)cc3Cl)s2)CC1.Cl` [Compound 11, N-((trans)-4-((4-Amino-5-(4-(dimethylaminomethyl)-2,6-dichlorobenzoyl)thiazol-2-yl)amino)cyclohexyl)-2-methylpropane-1-sulfonamide Hydrochloride]: the kinetic solubility in data set [1] was greater than 250 µM. Also, the EC50 in the data set with T. vivax was determined as 0.05 nM; in the data set with T. congolense, 0.59 nM; in the data set on L6 cells it was 4300 nM. The “Bovine Microsome Cli (BLM: bovine microsomal clearance)” value in data set [2] is 7.1 mL/min/g.

For the origin of these results see paper PMC9014415, “Repositioning of a Diaminothiazole Series Confirmed to Target the Cyclin-Dependent Kinase CRK12 for Use in the Treatment of African Animal Trypanosomiasis” (Journal of Medicinal Chemistry, 2022).
